Data reported in PubChem BioAssay AID256 (DTP/NCI, 2004).
Inconclusive results and toxic doses are left out. The calls were made as follows: active = survival T/C of 150% or more; inactive = T/C below 125% in these data.

Test system: CD2F1 mice, L1210 leukemia ip, survival T/C
Assay: NCI In Vivo Anticancer Drug Screen. Data for tumor model L1210 Leukemia (intraperitoneal) in CD2F1 (CDF1) mice
Settings: higher = longer survival
In short: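 Implant tumor; dose compound or vehicle; measure endpoint in both groups; report treated divided by control.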

[1] = endpoint: mean survival time, dose: 100.0 mg/kg/injection, schedule: Q01DX009 (ip), vehicle: saline with Tween-80
[2] = endpoint: mean survival time, dose: 200.0 mg/kg/injection, schedule: Q01DX009 (ip), vehicle: saline with Tween-80
[3] = endpoint: mean survival time, dose: 200.0 mg/kg/injection, schedule: Q04DX003 (ip), vehicle: saline with Tween-80
[4] = endpoint: mean survival time, dose: 400.0 mg/kg/injection, schedule: Q04DX003 (ip), vehicle: saline with Tween-80

Measured: T/C

CCCSc1ccc2nc(NC(=O)OC)[nH]c2c1
inactive: endpoint: mean survival time, dose: 50.0 mg/kg/injection, schedule: Q01DX009 (ip), vehicle: saline with Tween-80 93 % of control | [1] 107 % of control | [2] 118 % of control

CC(=O)C(CN(C)C)c1ccccc1 (stereo unspecified)
inactive: endpoint: mean survival time, dose: 100.0 mg/kg/injection, schedule: Q04DX003 (ip), vehicle: saline 95 % of control | endpoint: mean survival time, dose: 200.0 mg/kg/injection, schedule: Q04DX003 (ip), vehicle: saline 107 % of control

Cc1c2cnccc2c(C)c2c1c1ccccc1n2CCNCCO
inactive: endpoint: mean survival time, dose: 50.0 mg/kg/injection, schedule: Q01DX009 (ip), vehicle: saline sonified 113 % of control | endpoint: mean survival time, dose: 100.0 mg/kg/injection, schedule: Q01DX009 (ip), vehicle: saline sonified 87 % of control

COC(=O)c1c(CC#N)ncn1C1CC(OC(=O)c2ccc(C)cc2)C(COC(=O)c2ccc(C)cc2)O1 (stereo unspecified)
inactive: endpoint: median survival time, dose: 9.88 mg/kg/injection, schedule: Q01DX005 (ip), vehicle: water 101 % of control | endpoint: median survival time, dose: 19.75 mg/kg/injection, schedule: Q01DX005 (ip), vehicle: water 96 % of control | endpoint: median survival time, dose: 39.5 mg/kg/injection, schedule: Q01DX005 (ip), vehicle: water 96 % of control | endpoint: median survival time, dose: 79.0 mg/kg/injection, schedule: Q01DX005 (ip), vehicle: water 97 % of control | endpoint: median survival time, dose: 158.0 mg/kg/injection, schedule: Q01DX005 (ip), vehicle: water 100 % of control

O=c1[nH]c(-c2ccccc2)nc(-c2ccc(Cl)cc2)c1CCO
inactive: [1] 95 % of control | [2] 91 % of control | [3] 91 % of control | endpoint: mean survival time, dose: 400.0 mg/kg/injection, schedule: Q01DX009 (ip), vehicle: saline with Tween-80 96 % of control | [4] 86 % of control

Cc1cn(C2CCC3(C)C(=CCC4C3CCC3(C)C(C(C)CCCC(C)C)CCC43)C2)c(=O)[nH]c1=O (stereo unspecified)
inactive: endpoint: mean survival time, dose: 37.5 mg/kg/injection, schedule: Q01DX001 (ip), vehicle: Klucel (hydroxypropylcellulose) (HPC) 88 % of control | endpoint: mean survival time, dose: 75.0 mg/kg/injection, schedule: Q01DX001 (ip), vehicle: Klucel (hydroxypropylcellulose) (HPC) 91 % of control | endpoint: mean survival time, dose: 150.0 mg/kg/injection, schedule: Q01DX001 (ip), vehicle: Klucel (hydroxypropylcellulose) (HPC) 91 % of control | endpoint: mean survival time, dose: 300.0 mg/kg/injection, schedule: Q01DX001 (ip), vehicle: Klucel (hydroxypropylcellulose) (HPC) 91 % of control

O=C(/C=C/c1ccc(Cl)cc1)c1ccc(Cl)cc1
inactive: endpoint: mean survival time, dose: 100.0 mg/kg/injection, schedule: Q04DX003 (ip), vehicle: saline with Tween-80 98 % of control | [3] 90 % of control | [4] 93 % of control

O/N=C1\c2ccccc2-c2ccc(F)cc21
inactive: endpoint: mean survival time, dose: 50.0 mg/kg/injection, schedule: Q01DX001 (ip), vehicle: carboxymethylcellulose (CMC) 104 % of control | endpoint: mean survival time, dose: 100.0 mg/kg/injection, schedule: Q01DX001 (ip), vehicle: carboxymethylcellulose (CMC) 108 % of control | endpoint: mean survival time, dose: 200.0 mg/kg/injection, schedule: Q01DX001 (ip), vehicle: carboxymethylcellulose (CMC) 104 % of control | endpoint: mean survival time, dose: 400.0 mg/kg/injection, schedule: Q01DX001 (ip), vehicle: carboxymethylcellulose (CMC) 102 % of control

CCCC1CC[N-]CC1.CCCC1CC[N-]CC1.[Cl][Pt+2]([Cl])([Cl])[Cl]
inactive: endpoint: mean survival time, dose: 12.5 mg/kg/injection, schedule: Q01DX009 (ip), vehicle: saline sonified 114 % of control | endpoint: mean survival time, dose: 25.0 mg/kg/injection, schedule: Q04DX003 (ip), vehicle: saline with Tween-80 98 % of control

CC1CCC2CON(C#N)C2C1 (stereo unspecified)
inactive: endpoint: mean survival time, dose: 100.0 mg/kg/injection, schedule: Q04DX003 (ip), vehicle: Klucel (hydroxypropylcellulose) (HPC) 109 % of control | endpoint: mean survival time, dose: 200.0 mg/kg/injection, schedule: Q04DX003 (ip), vehicle: Klucel (hydroxypropylcellulose) (HPC) 101 % of control | endpoint: mean survival time, dose: 400.0 mg/kg/injection, schedule: Q04DX003 (ip), vehicle: Klucel (hydroxypropylcellulose) (HPC) 101 % of control

COc1cc2c(cc1O)CCCCC2
inactive: endpoint: mean survival time, dose: 50.0 mg/kg/injection, schedule: Q01DX009 (ip), vehicle: other 100 % of control | endpoint: mean survival time, dose: 100.0 mg/kg/injection, schedule: Q01DX009 (ip), vehicle: other 103 % of control | endpoint: mean survival time, dose: 200.0 mg/kg/injection, schedule: Q01DX009 (ip), vehicle: other 92 % of control
